What all share (assay type): biochemical
Experiment [1] deals with T1, soybean lipoxygenase (Glycine max, UniProt P08170).
T1 sequence (P08170 1-839): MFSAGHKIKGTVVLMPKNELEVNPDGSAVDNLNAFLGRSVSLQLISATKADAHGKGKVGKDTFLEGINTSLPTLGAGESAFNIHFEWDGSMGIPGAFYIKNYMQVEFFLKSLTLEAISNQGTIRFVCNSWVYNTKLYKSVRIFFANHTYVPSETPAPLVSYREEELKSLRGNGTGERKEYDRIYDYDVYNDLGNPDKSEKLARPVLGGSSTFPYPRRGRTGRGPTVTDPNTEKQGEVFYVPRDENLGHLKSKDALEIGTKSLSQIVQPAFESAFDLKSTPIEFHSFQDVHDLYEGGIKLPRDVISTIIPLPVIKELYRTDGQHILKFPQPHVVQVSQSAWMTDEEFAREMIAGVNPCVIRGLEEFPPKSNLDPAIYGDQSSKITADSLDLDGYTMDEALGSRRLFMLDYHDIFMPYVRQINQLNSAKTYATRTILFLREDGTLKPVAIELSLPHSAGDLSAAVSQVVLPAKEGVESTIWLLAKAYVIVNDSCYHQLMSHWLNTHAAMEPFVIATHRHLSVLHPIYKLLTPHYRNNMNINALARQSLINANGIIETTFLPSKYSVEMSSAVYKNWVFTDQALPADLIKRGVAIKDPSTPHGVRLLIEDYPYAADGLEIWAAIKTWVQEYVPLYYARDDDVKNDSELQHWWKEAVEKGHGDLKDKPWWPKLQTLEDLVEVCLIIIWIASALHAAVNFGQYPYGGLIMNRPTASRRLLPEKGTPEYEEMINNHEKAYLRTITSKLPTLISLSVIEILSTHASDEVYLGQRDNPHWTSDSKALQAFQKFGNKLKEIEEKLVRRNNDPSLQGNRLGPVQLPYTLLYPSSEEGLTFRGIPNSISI
In words: In vitro screening of compounds as potential inhibitors of soybean lipoxygenase (spectrophotometric assay, 15-HPETE at 236 nm). Conditions: pH 9.00, 10^-4 M arachidonic acid, 90 min, room temperature; for IC50: IC50 (concentration of 50% inhibition). The method, then: A spectrophotometric method has been developed to determine the enzyme activity according to Corey E.J. et al. (J. Amer. Chem. Soc, 104, 1750-1752; 1982). In a final volume of 1.8 ml was mixed 0.2 M of aerated Borax buffer pH =9.00 with 500 units of soybean lipoxygenase. When inhibitors were tested, they were added in 0.6 ml at final concentrations ranging from 10^-3 M to 10^-8 M followed by a preincubation of 10 minutes at room temperature. The reaction was initiated by 10^-4 M arachidonic acid. Following incubation at room temperature for 90 minutes, 15-HPETE was determined by absorbance measurements at 236 nm.
This method was validated with known inhibitors of lipoxygenase. For each test substance a control was included with boiled lipoxygenase in order to take into account any absorption of the compound at the wavelength used.

Experiment [2] deals with xanthine oxidase (Bos taurus, UniProt P80457). In words: In vitro screening of compounds as potential inhibitors of xanthine oxidase. Conditions: xanthine oxidase 0.01 units/ml, xanthine 5.10^-5 M, pH 7.4. From the text:
A unit of activity was defined as a change of 0.001 units/minute.

Experiment [3] concerns the target T2, cyclooxygenase (human platelets microsomes) (Homo sapiens, UniProt P23219).
T2 construct: human platelets microsomes; from tissue; host or cells: human platelet microsomes (microsomal powder)
In words: Cycloxygenase inhibition in human platelets microsomes. Conditions: cyclooxygenase (PGE2/TxB2), pH 7.9, 37° C. The method, then:
The enzymatic assay was carried out in silanized glassware according to the procedure of P. Ho, P. Walters and H, Sullivan (Prostaglandins 12, 951 1976). The reaction mixture containing 50 mM Tris HCl buffer, pH 7.9, 5mM 2-Tryptophan, […] methemoglobin, 0.2 mg of microsomal powder, and the test compound in a total volume of 0.2 ml was incubated at 37° C. for 5 minutes before the addition of 10 μl of 20 μM^14 C arachidonic acid (0.08 μCI). After 5 minute incubation, the reaction was terminated by the addition of 10 μl of 1M citric acid.
The mixture was extracted four times with 0.5 ml of anhydrous diethyl ether and dried with sodium sulphate. The residue was resuspended in approximately 40 μl of ether and submitted to chromatography on silica gel plates. The elution system consisted of diethyl ether/methanol/acetic acid (90:1:2). The RF values were measured relative to arachidonic acid. Thin layer chromatography plates (TLC) were exposed on LKB ultrafilm for about 24 hours. Partial identification of the spots were carried out by running standards (PGA2, PGB2, PGE2, PGF2c, PXB2, arachidonic acid) in the same solvent system. Quantitative results were obtained by scanning the developed film with a transmission densitometer (EC Apparatus 910) interfaced with a Hewlett Packard 3390A integrator.
The activity of the substances of the cyclooxygenase is quantified by the 2 spots corresponding to PGE2 and TxB2 (ratio PGE2 /TxB2).

Data on ten compounds can be found in patent publication US5013756A, “Catechol derivatives, a process of preparation thereof, and therapeutical compositions containing the same” (priority 1985, dated 1991).

T2 sequence (P23219 24-599): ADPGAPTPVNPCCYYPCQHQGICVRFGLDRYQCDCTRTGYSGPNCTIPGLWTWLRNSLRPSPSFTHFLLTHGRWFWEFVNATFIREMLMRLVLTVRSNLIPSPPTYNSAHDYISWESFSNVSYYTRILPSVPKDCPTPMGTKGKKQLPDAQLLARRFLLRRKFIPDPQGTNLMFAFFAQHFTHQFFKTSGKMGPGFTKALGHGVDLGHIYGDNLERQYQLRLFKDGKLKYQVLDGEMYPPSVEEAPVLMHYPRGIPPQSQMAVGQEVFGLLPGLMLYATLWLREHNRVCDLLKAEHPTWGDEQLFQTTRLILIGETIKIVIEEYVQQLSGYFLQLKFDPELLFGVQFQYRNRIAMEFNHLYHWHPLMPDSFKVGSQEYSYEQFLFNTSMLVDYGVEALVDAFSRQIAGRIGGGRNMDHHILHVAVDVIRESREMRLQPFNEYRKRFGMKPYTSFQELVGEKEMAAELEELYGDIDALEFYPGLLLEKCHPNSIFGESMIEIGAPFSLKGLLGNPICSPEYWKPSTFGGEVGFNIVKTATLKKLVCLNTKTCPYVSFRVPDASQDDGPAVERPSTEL
xanthine oxidase, sequence (P80457 whole entry): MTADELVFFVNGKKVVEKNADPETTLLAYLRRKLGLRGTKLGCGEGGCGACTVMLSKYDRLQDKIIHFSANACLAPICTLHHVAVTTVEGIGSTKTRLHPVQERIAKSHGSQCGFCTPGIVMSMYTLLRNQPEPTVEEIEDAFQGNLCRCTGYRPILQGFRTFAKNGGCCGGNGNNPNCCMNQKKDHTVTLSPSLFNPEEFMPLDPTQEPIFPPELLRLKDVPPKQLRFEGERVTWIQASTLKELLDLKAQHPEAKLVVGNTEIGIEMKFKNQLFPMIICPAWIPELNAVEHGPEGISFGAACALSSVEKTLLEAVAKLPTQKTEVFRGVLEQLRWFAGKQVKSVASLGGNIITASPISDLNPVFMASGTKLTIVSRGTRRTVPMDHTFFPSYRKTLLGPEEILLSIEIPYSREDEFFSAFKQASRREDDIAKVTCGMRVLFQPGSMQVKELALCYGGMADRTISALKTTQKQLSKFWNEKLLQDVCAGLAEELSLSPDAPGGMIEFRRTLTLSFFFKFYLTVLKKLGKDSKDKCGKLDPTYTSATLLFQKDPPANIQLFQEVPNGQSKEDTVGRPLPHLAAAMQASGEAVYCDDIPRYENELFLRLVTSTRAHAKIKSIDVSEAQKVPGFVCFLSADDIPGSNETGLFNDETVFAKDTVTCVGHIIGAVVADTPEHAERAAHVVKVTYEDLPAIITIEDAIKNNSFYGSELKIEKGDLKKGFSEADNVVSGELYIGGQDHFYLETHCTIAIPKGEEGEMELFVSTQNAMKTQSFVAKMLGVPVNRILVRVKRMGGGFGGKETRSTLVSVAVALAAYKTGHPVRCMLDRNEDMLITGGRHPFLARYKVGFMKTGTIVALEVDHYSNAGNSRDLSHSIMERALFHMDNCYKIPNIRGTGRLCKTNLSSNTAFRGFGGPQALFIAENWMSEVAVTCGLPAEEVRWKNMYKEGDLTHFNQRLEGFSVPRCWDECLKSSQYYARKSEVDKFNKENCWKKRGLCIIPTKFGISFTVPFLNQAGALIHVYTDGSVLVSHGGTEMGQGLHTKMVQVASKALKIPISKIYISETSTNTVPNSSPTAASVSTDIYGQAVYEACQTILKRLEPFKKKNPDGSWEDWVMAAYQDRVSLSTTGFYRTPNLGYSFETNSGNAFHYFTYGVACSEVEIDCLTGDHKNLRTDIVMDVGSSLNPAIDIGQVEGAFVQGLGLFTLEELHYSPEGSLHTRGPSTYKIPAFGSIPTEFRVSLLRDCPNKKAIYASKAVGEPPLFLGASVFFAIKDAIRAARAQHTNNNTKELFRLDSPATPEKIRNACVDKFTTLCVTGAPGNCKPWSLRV

Consider `N=C(N)Sc1ccc(O)c(O)c1`, for which, in experiment [1], the “IC50 (concentration of 50% inhibition)” value is on record as “Not active”.
In experiment [1], `S=C(N=Nc1ccccc1)NNc1ccccc1` [Diphenylthiocarbazone, reference compound] showed a half-maximal inhibitory concentration (IC50) of 1.61 µM.
Compound `Nc1nc2ncc(CNc3ccc(C(=O)N[C@@H](CCC(=O)O)C(=O)O)cc3)nc2c(=O)[nH]1` [Folic acid, reference compound] registered an IC50 in experiment [2] of 0.676 µM.
In turn, `Oc1ccc(S)cc1O` [drawing 6] registered a half-maximal inhibitory concentration (IC50) in experiment [1] of 93 µM.
The same measure, in the same setting: the figure for `CCC(C)CSc1ccc(O)c(O)c1` (stereo not shown) [drawing 7] is 104 µM; for `CC1CCC(C(C)C)C(Sc2ccc(O)c(O)c2)C1` (stereo not shown) [drawing 8] it is 24.1 µM.
`CCCCCCC(C)Sc1ccc(O)c(O)c1` (stereo not shown) [drawing 9]: in experiment [1], half-maximal inhibition (IC50) required 27.6 µM.
`CCCCCCC(C)Sc1ccc(O)c(O)c1` (stereo not shown) [drawing 10] returned an IC50 in experiment [1] of 24.5 µM.
In experiment [3], `Oc1ccc(S)cc1O` [drawing 20] yielded an IC50 of 9.23 µM.
For `CCC(C)CSc1ccc(O)c(O)c1` (stereo not shown) [drawing 21], the IC50 in experiment [3] was determined as 4.31 µM.
